Data reported in publication PMC3155955 (Bioorganic & medicinal chemistry letters, 2011).

Columns and labels:
[1] = tested on: HCT-116 human colon cancer cells; assay: MTS cytotoxicity assay, HCT-116; type: cell-based
[2] = tested on: CCD-18Co normal colon fibroblasts; assay: MTS cytotoxicity assay, CCD-18Co; type: cell-based, human; conditions: colon cancer cells (HCT-116, Caco-2) vs CCD-18Co
[3] = tested on: Caco-2 human colon cancer cells; assay: MTS cytotoxicity assay, Caco-2; type: cell-based; conditions: Caco-2, read-out: IC50 (consistent values of the control)

Question: With COc1cc2c3c(c1O)-c1cc4c(cc1C[C@@H]3N(C)CC2)OCO4 [Compound 1, domesticine] as the compound, how does the “fold less potent than the benchmark etoposide” value ([1]; HCT-116 cell line) read?
Answer: approximately 3 fold

Question: CCC(CC)COc1c(OC)cc2c3c1-c1cc4c(cc1C[C@@H]3N(C)CC2)OCO4 [Compound 3] was tested. Which “selectivity for colon cancer cells vs normal colon fibroblasts (CCD-18Co)” value [2] did it give?
Answer: approximately 2 fold

Question: How did the IC50 ([1]; Homo sapiens, HCT-116, read-out: IC50 (consistent values of the control)) turn out when COc1cc([C@@H]2c3cc4c(cc3[C@@H](O[C@@H]3O[C@@H]5CO[C@@H](C)O[C@H]5[C@H](O)[C@H]3O)[C@H]3COC(=O)[C@H]23)OCO4)cc(OC)c1O [etoposide] was run?
Answer: 15 to 25 µM

Question: And the IC50 [3]?
Answer: 15 to 25 µM
